Like-named read-outs stand apart in the source and are kept apart here.
Legend:
[1] = in water, used as standard for phosphorescence quantum yields; cited from earlier work
[2] = system: human melanocytic melanoma cells (A375); assay: Photocytotoxicity (photodynamic treatment, MTT assay); assay type: cell-based; settings: 24 h incubation, irradiated 7.5 mW/cm^2 to 10 J, red filter (cut off < 560 nm)
Protocol: In an embodiment the photodynamic activity were as following: For each experiment, A375 cells were plated and kept in the incubator overnight, in order to allow the attachment of the cells. The initial formulation of the sensitizers consisted of a 1 mg/mL solution in DMSO and the desired concentrations were achieved by successive dilutions, being always administered to the cells at 1% DMSO. After sensitizer administration (from 1 nM to 10 µM), cells were incubated for 24 h. Controls were performed on every test. Cells were washed with PBS and new drug-free medium was added. Each plate was irradiated with a fluence rate of 7.5 mW/cm^2 until a total of 10 J was reached, using a light source equipped with a red filter (cut off < 560 nm).

A375 cells = settings: absence of light
Protocol: In an embodiment the cell culture conditions were as following: The A375 (CRL1619) human melanoma cell lines were purchased from American Type Culture Collection and cultured according to standard procedures using the Dulbecco's Modified Eagle medium (Sigma-Aldrich, Inc; Sigma D-5648) supplemented with 10% heat-inactivated fetal bovine serum (Gibco Invitrogen Life Technologies; Gibco 2010-04), 1% Penicillin-Streptomycin (Gibco Invitrogen Life Technologies; 100 U/mL penicillin and 10 µg/mL streptomycin - Gibco 15140-122) and 100 µM sodium pyruvate (Gibco Invitrogen Life Technologies; Gibco 1360) at 37 °C, in a humidified incubator with 95% air and 5% CO2. For all studies, cells were detached using a solution of 0.25% trypsin-EDTA (Gibco).
In an embodiment for the evaluation of photocytotoxicity a MTT assay was performed. Cell culture plates were washed and incubated with a solution of 3-(4,5-dimethylthiazol-2-yl)-2,5- diphenyltetrazolium bromide (0.5 mg/mL, Sigma) in PBS, pH 7.4, in the dark at 37 °C for 4 hours. To solubilize formazan crystals, a 0.04 M solution of hydrochloric acid in isopropanol was added. Absorbance was measured using a Biotek Synergy HT Plate Reader. Cytotoxicity was expressed as the inhibition percentage of cultures subjected to PDT, correlated with cultures only treated with the vehicle administration of sensitizers. […]

[3] = in toluene, used as standard; cited from earlier work

Row | Molecule | IC50 [2] | also measured
1 | [Ru+2].c1ccc(-c2ccccn2)nc1.c1ccc(-c2ccccn2)nc1.c1ccc(-c2ccccn2)nc1 [tris(2,2'-bipyridyl)ruthenium (II)] | – | φF [1]: 0.042
2 | platinum (II) 2,3-dihydroxymethyl-4,5,6,7-tetrahydropyrazolo[1,5-α]pyridine-fused chlorin [Chlorin 8] | 144 nM | IC50 (A375 cells): 22300 nM
3 | Photofrin@ | 156 nM | –
4 | C1=Cc2nc1c(-c1ccccc1)c1ccc([nH]1)c(-c1ccccc1)c1nc(c(-c3ccccc3)c3ccc([nH]3)c2-c2ccccc2)C=C1 [TPP, meso-tetraphenylporphyrin] | – | φF [3]: 0.11
5 | platinum (II) dimethyl 4,5,6,7-tetrahydropyrazolo[1,5-α]pyridine-2,3-dicarboxylate-fused chlorin [Chlorin 7b] | > 5000 nM | –

From patent EP3419977B1, “PLATINUM(II) RING-FUSED CHLORINS, METHODS AND USES THEREOF” (Universidade de Coimbra, priority 2016, dated 2017)
